Experiments:
Keap1 [1] = target: T1, Keap1 (Homo sapiens, UniProt Q14145); assay: WB of Keap1 in OCI-AML2 cells (soluble/insoluble phase); format: cell-based; parameters: endogenous in cells; host or cells: OCI-AML2
Procedure: Cells were incubated with DMSO at 0.1% or with compound in concentrations ranging 10–20,000 nM for 20 h unless indicated differently. Following incubation, lysis was performed in RIPA buffer and the samples were measured for total protein quantification by BCA assay (Thermo Fisher Scientific, 23225). Then, 20–40 μg of each sample was loaded and run on an SDS–PAGE gel, before transferring onto a nitrocellulose membrane using a Trans-Blot Turbo system (Bio-Rad) and blocking using a 5% BSA in TBS-T (w/v) solution for 1 h at room temperature. Incubation with primary antibodies (mouse anti-BCL-6 (sc-7388, Santa Cruz, 1:500; overnight at 4 °C), mouse anti-Keap1 (sc-365626, Santa Cruz, 1:500; overnight at 4 °C), rabbit anti-LDHA (4H18L6, Thermo Fisher, 1:1,000; overnight at 4 °C), mouse anti-NQO2 (sc-271665, Santa Cruz, 1:500; overnight at 4 °C), rabbit anti-c-Myc (5605, Cell Signaling, 1:1,000; overnight at 4 °C) and mouse anti-β-actin (3700, Cell Signaling, 1:1,000; 1 h at room temperature) was performed and then the membranes were washed and incubated with a horseradish-peroxidase-conjugated secondary antibody (mouse 7076/rabbit 7074, Cell Signaling) at room temperature for 1 h. Imaging of the chemiluminescence signal was performed using a ChemiDoc XRS+ instrument (Bio-Rad). Primary band quantifications were normalized against β-actin bands.

Keap1 [2] = target: T1, Keap1; assay: Immunostaining of endogenous Keap1 puncta in U2OS cells; format: cell-based; parameters: We visualized the subcellular localization of endogenous Keap1 following PINCH treatment by immunofluorescence in U2OS cells; endogenous in cells; host or cells: U2OS (ATCC HTB-96); conditions: 250 nM
Procedure: The cells were then blocked with 5% BSA for 60 min at room temperature. Cells were stained with primary antibody, at a concentration of 1:100, for 3 h at room temperature and were then subjected to a secondary antibody conjugated to Alexa Fluor, at a concentration of 1:100–500, for 1 h at room temperature. Lastly, cells were also stained with DAPI for 10 min at room temperature.
Imaging of the cells was performed using a Dragonfly spinning disk confocal system (Andor Technology) connected to an inverted Leica Dmi8 microscope (Leica Microsystems). The signals were detected using a scientific complementary metal–oxide–semiconductor Zyla (Andor) 2,048 × 2,048 camera and the bit depth was 16. At the specified intervals, Z stacks (0.17 µm) of selected cells were acquired with an HC PL APO ×63/1.3 GLYC CORR CS2 objective (506353, Leica Microsystems).
Automatic aggregate segmentation was conducted using the surface module with manual threshold fixed for all images of the same experiment (default 2-pixel smoothing, background subtraction with 0.9-μm largest sphere, morphological split with 0.5-μm seed point diameter). […]
Spots were considered colocalized if their centers were up to 1 μm apart. We manually segmented each cell in 3D using the Surface module and quantified the number percentage and the total puncta volume percentage of colocalized spots for each cell.

recombinant Keap1 BTB [3] = assay: DLS of recombinant Keap1 BTB domain; format: biochemical; conditions: 50 µM protein, 50 µM compound
Procedure: (§1) DLS samples were prepared in the respective protein’s elution buffer, to which 0.01% Tween was added, along with the compound from a DMSO stock to obtain a final DMSO concentration of 2%. Samples were prepared at room temperature and measured at a constant temperature of 25 °C. All samples were passed through 0.1-μm filters and then placed in a clear-bottom black 384-well plate. DLS data were recorded using a DynaproPlate Reader III (Wyatt Technology). Data were processed with the supplied DYNAMICS software.

recombinant Keap1 BTB [4] = target: T2, recombinant Keap1 BTB (Homo sapiens, UniProt Q14145, S172A); assay: DLS of recombinant Keap1 BTB domain; format: biochemical; conditions: 50 μM Keap1 BTB, 50 μM compound, room temperature, over time
T2 construct: The Keap1 BTB domain (48–180) encoding the single substitution S172A was cloned into pET28-bdSumo vector; His–bdSumo (N, cleaved yes); made in house; host or cells: E. coli BL21(DE3)
Procedure: as §1

Nrf2 = assay: WB of Nrf2; format: cell-based; conditions: U2OS cells, 20 h compound treatment
Mino cells = assay: Viability measurements, Mino cells; format: cell-based; conditions: Mino, 72 h
Procedure: (§2) Cells were seeded in a transparent-bottom, black 96-well plate, at 15,000 cells per well in sixfold replications. in 90 µl of medium and left to adhere for at least 4 h. The cells were then treated with the respective compound by adding 10 µl of medium–-compound mixture for a final volume of 100 µl in each well. Cell-Titer blue reagent was used to measure viability according to the manufacturer’s instructions. Plate reader measurements were performed on a Tecan Spark Control 10 M fluorescence system.

U2OS cells = assay: Viability measurements, U2OS cells; format: cell-based
Procedure: as §2

T1 sequence (Q14145 whole entry): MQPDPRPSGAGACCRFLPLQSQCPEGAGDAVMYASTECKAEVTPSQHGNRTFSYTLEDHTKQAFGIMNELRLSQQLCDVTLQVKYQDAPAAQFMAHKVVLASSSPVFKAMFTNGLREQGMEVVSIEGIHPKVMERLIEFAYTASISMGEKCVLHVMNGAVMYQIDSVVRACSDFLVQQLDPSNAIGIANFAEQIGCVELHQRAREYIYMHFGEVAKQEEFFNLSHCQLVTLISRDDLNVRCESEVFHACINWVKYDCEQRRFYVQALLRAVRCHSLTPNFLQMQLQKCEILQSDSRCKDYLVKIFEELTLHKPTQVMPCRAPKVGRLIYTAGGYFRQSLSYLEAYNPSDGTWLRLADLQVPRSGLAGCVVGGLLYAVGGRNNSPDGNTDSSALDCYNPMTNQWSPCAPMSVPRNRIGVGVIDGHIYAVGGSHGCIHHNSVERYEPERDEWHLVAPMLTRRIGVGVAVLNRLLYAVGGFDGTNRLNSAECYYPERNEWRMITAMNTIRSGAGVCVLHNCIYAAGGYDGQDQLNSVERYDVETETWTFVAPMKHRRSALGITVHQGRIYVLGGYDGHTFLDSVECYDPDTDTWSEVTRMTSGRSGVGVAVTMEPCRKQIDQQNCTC
T2 sequence (Q14145 48-180 S172A): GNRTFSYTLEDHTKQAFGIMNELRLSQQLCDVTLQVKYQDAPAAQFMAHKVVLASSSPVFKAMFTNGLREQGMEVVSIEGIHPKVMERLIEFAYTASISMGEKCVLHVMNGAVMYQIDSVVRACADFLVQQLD

rescue of Keap1 downregulation by MLN-4924 or bortezomib pretreatment (Keap1 [1]; OCI-AML2, 1 h pretreatment, then compound 7 h): did not rescue Keap1 downregulation
concentration at which Keap1 accumulates in the insoluble phase (as low as) (Keap1 [1]; OCI-AML2 cells): 500 nM
EC50 (Keap1 [1]; OCI-AML2 cells, 20 h treatment, read-out: EC50 (Keap1 downregulation, WB)): 102 nM
Keap1 puncta (immunofluorescence) (Keap1 [2]): bright punctate structures
formation of large species (DLS) (recombinant Keap1 BTB [4]): large molecular species forming
difference in viability IC50 over BDX (U2OS cells): threefold
IC50 (U2OS cells; Homo sapiens, 72 h): 254 nM
Structure (SMILES): CC1(C)CCC2(C(=O)NCCOCCOCCNC(=O)C34CCC(C)(C)CC3C3C(=O)C=C5C6(C)C=C(C#N)C(=O)C(C)(C)C6CCC5(C)C3(C)CC4)CCC3(C)C(C(=O)C=C4C5(C)C=C(C#N)C(=O)C(C)(C)C5CCC43C)C2C1 (centres unmarked) [EL133]
Keap1 in insoluble phase after washout (WB) (Keap1 [1]; OCI-AML2, 500 nM EL133 or 2.5 µM EL256 for 20 h, then washout): remained accumulated in the insoluble phase for up to the 96 h
formation of large species with WT versus C151S Keap1 BTB (DLS) (recombinant Keap1 BTB [3]): able to form large species in solution with the wild-type (WT) protein but not with the mutant
Nrf2 levels (WB) (Nrf2): Nrf2 upregulation
additional viability loss compared with BDX (Mino cells): no additional viability loss

— article PMC13503280, “A pharmacological modality to sequester homomeric proteins” (Nature Chemical Biology, 2026)
